Experimental data reported in ChEMBL document CHEMBL1142026, “Isoindolinone-based inhibitors of the MDM2-p53 protein-protein interaction” (Bioorg Med Chem Lett, 2005).

target: Tumour suppressor p53/oncoprotein Mdm2 (Homo sapiens, UniProt Q00987); assay: (§1) Inhibitory concentration against MDM2-p53 interaction in SJSA human sarcoma cells; format: cell-based, SJSA-1; conditions: not given
Sequence (P04637 whole entry): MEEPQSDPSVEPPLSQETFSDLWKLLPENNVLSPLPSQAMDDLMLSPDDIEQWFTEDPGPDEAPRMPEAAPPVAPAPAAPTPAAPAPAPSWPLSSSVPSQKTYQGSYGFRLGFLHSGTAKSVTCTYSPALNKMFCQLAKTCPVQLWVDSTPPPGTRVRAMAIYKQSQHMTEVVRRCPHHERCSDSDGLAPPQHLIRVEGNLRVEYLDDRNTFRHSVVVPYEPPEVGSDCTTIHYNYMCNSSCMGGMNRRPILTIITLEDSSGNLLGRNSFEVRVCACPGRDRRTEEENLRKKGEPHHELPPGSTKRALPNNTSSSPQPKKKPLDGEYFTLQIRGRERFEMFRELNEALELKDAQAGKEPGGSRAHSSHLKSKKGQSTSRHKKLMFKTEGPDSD
Sequence (Q00987 whole entry): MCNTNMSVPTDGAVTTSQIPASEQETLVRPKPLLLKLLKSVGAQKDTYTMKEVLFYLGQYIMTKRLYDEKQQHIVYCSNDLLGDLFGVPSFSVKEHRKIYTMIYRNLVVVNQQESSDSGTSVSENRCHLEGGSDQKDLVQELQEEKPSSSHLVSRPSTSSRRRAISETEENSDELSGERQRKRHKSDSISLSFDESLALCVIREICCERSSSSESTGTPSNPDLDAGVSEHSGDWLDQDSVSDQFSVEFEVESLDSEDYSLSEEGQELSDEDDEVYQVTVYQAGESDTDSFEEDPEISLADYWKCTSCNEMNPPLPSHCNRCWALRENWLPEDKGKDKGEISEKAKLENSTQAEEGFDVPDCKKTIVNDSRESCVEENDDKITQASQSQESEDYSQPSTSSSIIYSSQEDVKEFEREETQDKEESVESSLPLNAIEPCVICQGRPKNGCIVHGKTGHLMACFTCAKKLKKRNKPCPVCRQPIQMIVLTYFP

Compound | IC50 [µM]
CCCN1C(=O)c2ccccc2C1(OCCCO)c1ccccc1 (centres undefined) | > 500
CCCN1C(=O)c2ccccc2C1(OCCc1ccccn1)c1ccccc1 (centres undefined) | 100
COc1cc(COC2(c3ccc(Cl)cc3)c3ccccc3C(=O)N2CCNC(C)=O)cc(OC)c1O (centres undefined) | 76
CCCN1C(=O)c2ccccc2C1(NC(=O)c1ccc(C(C)(C)C)cc1)c1ccc(OCOCC[Si](C)(C)C)cc1 (centres undefined) | 27
CCCN1C(=O)c2ccccc2C1(OCc1ccc(C(C)(C)C)cc1)c1ccccc1 (centres undefined) | > 500
CCCNC1(c2ccccc2)c2ccccc2C(=O)N1Cc1ccccc1 (centres undefined) | ~200
CCCOC1(c2ccccc2)c2ccccc2C(=O)N1C(Cc1ccc(O)cc1)C(=O)OC (centres undefined) | 90
CCCOC1(c2ccccc2)c2ccccc2C(=O)N1CCC (centres undefined) | ~200
CC(=O)NCCN1C(=O)c2ccccc2C1(OCc1ccc(C(C)(C)C)cc1)c1ccc(Cl)cc1 (centres undefined) | 91.4

Second part, the molecule after the results:

IC50 [µM] | Compound
~200 | CCCOC1(c2ccccc2)c2ccccc2C(=O)N1Cc1ccccc1 (centres undefined)
99 | CC(C)(C)c1ccc(COC2(c3ccc(Cl)cc3)c3ccccc3C(=O)N2Cc2ccccc2)cc1 (centres undefined)
92 | CC(C)(C)c1ccc(COC2(c3ccccc3)c3ccccc3C(=O)N2Cc2ccccc2)cc1 (stereo in doubt; 5)
82 | CCCN1C(=O)c2ccccc2C1(OCc1cc(OC)c(O)c(OC)c1)c1ccccc1 (centres undefined)
70 | COc1ccc(C(O)CNC2(c3ccccc3)c3ccccc3C(=O)N2Cc2ccccc2)cc1 (centres undefined)
66 | CCCN1C(=O)c2ccccc2C1(NC(=O)c1ccccc1)c1ccc(C(C)(C)C)cc1 (centres undefined)
57 | CCCN1C(=O)c2ccccc2C1(OCCc1ccccn1)c1ccc(Cl)cc1 (centres undefined)
42 | COc1cc(COC2(c3ccc(Cl)cc3)c3ccccc3C(=O)N2Cc2ccccc2)cc(OC)c1O (centres undefined)
26.2 | O=C1c2ccccc2C(OCCc2ccccn2)(c2ccc(Cl)cc2)N1Cc1ccccc1 (centres undefined)
17.9 | COc1cc(COC2(c3ccccc3)c3ccccc3C(=O)N2Cc2ccccc2)cc(OC)c1O (centres undefined)
16.4 | CCCN1C(=O)c2ccccc2C1(OCCCO)c1ccc(Cl)cc1 (centres undefined)
15.9 | O=C1c2ccccc2C(OCCCO)(c2ccc(Cl)cc2)N1Cc1ccccc1 (centres undefined)
14 | CC(=O)NCCN1C(=O)c2ccccc2C1(OCc1ccc(C(C)(C)C)cc1)c1ccccc1 (centres undefined)
5.3 | CCCN1C(=O)c2ccccc2C1(OCc1cc(OC)c(O)c(OC)c1)c1ccc(Cl)cc1 (centres undefined)

target: Tumour suppressor p53/oncoprotein Mdm2 (Homo sapiens, UniProt P04637+Q00987); assay: as §1; format: cell-based, SJSA-1; conditions: sjsa-1
Sequence (P04637 whole entry): as the sequence (P04637 whole entry) above
Sequence (Q00987 whole entry): as the sequence (Q00987 whole entry) above

Compound | IC50 [µM]
CC(C)(C)c1ccc(COC2(c3ccccc3)c3ccccc3C(=O)N2Cc2ccccc2)cc1 (stereo in doubt; 2d) | 92
